Measured values reported in patent US9006240B2, “Method for assay on the effect of vascularization inhibitor” (Eisai R&D Management Co., Ltd., priority 2005, dated 2015).

Assays:
DU145 = assay: Anti-tumor effect in DU145 subcutaneous xenograft model; type: in vivo, human; settings: DU145 xenograft in nude mice; methanesulfonate 100 mg/kg twice a day, one week, oral; day 8 vs day 1
Description: (§1) Human tumor cell lines MDA-MB-231, MDA-MB-468, DU145, AsPC-1 (these four lines were purchased from ATCC), A549 (purchased from Dainippon Pharmaceutical Co., Ltd.), Lovo, SK-OV-3, H526, PC-3, DLD-1, HCT116 (these six lines were purchased from ATCC), SEKI, HMV-1 (these two lines were purchased from JCRB cell bank, National Institute of Biomedical Innovation), LOX (purchased from AntiCancer) and A375 (purchased from Dainippon Pharmaceutical Co., Ltd.) were cultured with RPMI1640 (containing 10% FBS) in a 5% CO2 gas incubator until they reached about 80% confluence. After culturing, cells from each line were recovered with trypsin-EDTA by conventional procedures. The cells were suspended in phosphate buffer to prepare a cell suspension of 1×10^8 cells/ml or 5×10^7 cells/ml. […] The major axis and minor axis of tumor were measured with a Digimatic Caliper (Mitsutoyo). Then, tumor volume, relative tumor volume and ΔT/C were calculated using the following formulas: Tumor volume (TV)=tumor major axis (mm)×tumor minor axis^2 (mm^2)/2 Relative tumor volume (RTV)=tumor volume on the measurement day/tumor volume on the starting day of administration ΔT/C=(tumor volume at day 8 of administration groups−tumor volume at day 1 of administration groups)/(tumor volume at day 8 of control group−tumor volume at day 1 of control group)×100 […]

SEKI = assay: Anti-tumor effect in SEKI subcutaneous xenograft model; type: in vivo, human; settings: SEKI xenograft in nude mice; methanesulfonate 100 mg/kg twice a day, one week, oral; day 8 vs day 1
Description: as §1

PC-3 = assay: Anti-tumor effect in PC-3 subcutaneous xenograft model; type: in vivo, human; settings: PC-3 xenograft in nude mice; methanesulfonate 100 mg/kg twice a day, one week, oral; day 8 vs day 1
Description: as §1

DLD-1 = assay: Anti-tumor effect in DLD-1 subcutaneous xenograft model; type: in vivo, human; settings: DLD-1 xenograft in nude mice; methanesulfonate 100 mg/kg twice a day, one week, oral; day 8 vs day 1
Description: as §1

MDA-MB-468 = assay: Anti-tumor effect in MDA-MB-468 subcutaneous xenograft model; type: in vivo, human; settings: MDA-MB-468 xenograft in nude mice; methanesulfonate 100 mg/kg twice a day, one week, oral; day 8 vs day 1
Description: as §1

A375 = assay: Anti-tumor effect in A375 subcutaneous xenograft model; type: in vivo, human; settings: A375 xenograft in nude mice; methanesulfonate 100 mg/kg twice a day, one week, oral; day 8 vs day 1
Description: as §1

H526 = assay: Anti-tumor effect in H526 subcutaneous xenograft model; type: in vivo, human; settings: H526 xenograft in nude mice; methanesulfonate 100 mg/kg twice a day, one week, oral; day 8 vs day 1
Description: as §1

LOX = assay: Anti-tumor effect in LOX subcutaneous xenograft model; type: in vivo, human; settings: LOX xenograft in nude mice; methanesulfonate 100 mg/kg twice a day, one week, oral; day 8 vs day 1
Description: as §1

[1] = system: human non-small cell lung cancer cell strain (PC-9); assay: Combined application of VEGF receptor kinase inhibitor and EGF inhibitor in PC-9 subcutaneous xenograft model; type: in vivo; settings: PC-9 xenograft, nude mice, 4 weeks, control 7.51 ± 1.69
Description: Combined Application of VEGF Receptor Kinase Inhibitor and EGF Inhibitor in Human Non-Small Cell Lung Cancer Cell Strain (PC-9) Subcutaneous Xenograft Model (In Vivo) […] Then, cells were recovered with trypsin-EDTA. A cell suspension (5×10^7 cells/nil) was prepared with phosphate buffer. The resultant cell suspension was subcutaneously transplanted into the flank of nude mice (0.1 ml/mouse). […] The major axis and minor axis of tumor were measured with a Digimatic Caliper (Mitsutoyo). Then, tumor volume and relative tumor volume were calculated using the following formulas: […]

HMV-1 = assay: Anti-tumor effect in HMV-1 subcutaneous xenograft model; type: in vivo, human; settings: HMV-1 xenograft in nude mice; methanesulfonate 100 mg/kg twice a day, one week, oral; day 8 vs day 1
Description: as §1

HCT116 = assay: Anti-tumor effect in HCT116 subcutaneous xenograft model; type: in vivo, human; settings: HCT116 xenograft in nude mice; methanesulfonate 100 mg/kg twice a day, one week, oral; day 8 vs day 1
Description: as §1

[2] = system: human non-small cell lung cancer cell line (A549); assay: Combined application of VEGF receptor kinase inhibitor and EGF inhibitor in A549 subcutaneous xenograft model; type: in vivo; settings: nude mice, 4 weeks, control 9.94 ± 0.77
Description: Combined Application of VEGF Receptor Kinase Inhibitor and EGF Inhibitor in Human Non-Small Cell Lung Cancer Cell line (A549) Subcutaneous Xenograft Model (In Vivo) […] Then, cells were recovered with trypsin-EDTA. A cell suspension (5×10^7 cells/ml) was prepared with phosphate buffer containing 50% matrigel. The resultant cell suspension was subcutaneously transplanted into the flank of nude (0.1 ml/mouse). From day 10 of transplantation, 4-(3-chloro-4-(cyclopropylaminocarbonyl)aminophenoxy)-7-methoxy-6-quinolinecarboxamide (a methanesulfonate) and erlotinib were orally administered independently or in combination. With respect to 4-(3-chloro-4-(cyclopropylaminocarbonyl)aminophenoxy)-7-methoxy-6-quinolinecarboxamide (a methanesulfonate), it was administered at 3 mg/kg, 10 mg/kg or 30 mg/kg; once a day; for 4 weeks. With respect to erlotinib, it was administered at 50 mg/kg, once a day, for 4 weeks. The major axis and minor axis of tumor were measured with a Digimatic Caliper (Mitsutoyo). Then, tumor volume and relative tumor volume were calculated using the following formulas: […]

MDA-MB-231 = assay: Anti-tumor effect in MDA-MB-231 subcutaneous xenograft model; type: in vivo, human; settings: MDA-MB-231 xenograft in nude mice; methanesulfonate 100 mg/kg twice a day, one week, oral; day 8 vs day 1
Description: as §1

[3] = Compound A 10 mg/kg oral once a day
[4] = Erlotinib 50 mg/kg oral once a day

In the case of COc1cc2nccc(Oc3ccc(NC(=O)NC4CC4)c(Cl)c3)c2cc1C(N)=O [Compound A, 4-(3-chloro-4-(cyclopropylaminocarbonyl)aminophenoxy)-7-methoxy-6-quinolinecarboxamide], the ΔT/C (DU145) is reported as under −30%, the ΔT/C (SEKI) is reported as over 10% and the ΔT/C (PC-3) is reported as over 10%. For the same compound, the ΔT/C (DLD-1) was over 10%, the ΔT/C (MDA-MB-468) was under −30% and the ΔT/C (A375) was over 10%. The ΔT/C (H526) was over 10%, the ΔT/C (LOX) was over 10% and the “Relative Tumor Volume at Day 29 Mean ± Standard Deviation” value [1, 3] was 2.24 ± 0.54. For the same compound, the ΔT/C (HMV-1) was over 10%, the ΔT/C (HCT116) was over 10% and the “Relative Tumor Volume at Day 29 Mean ± Standard Deviation” value ([2]; Compound A 3 mg/kg oral once a day) was 4.34 ± 0.80. For the same compound, the “Relative Tumor Volume at Day 29 Mean ± Standard Deviation” value [2, 3] was 2.65 ± 0.45, the “Relative Tumor Volume at Day 29 Mean ± Standard Deviation” value ([2]; Compound A 30 mg/kg oral once a day) was 1.65 ± 0.31 and the ΔT/C (MDA-MB-231) was under −30%.
C#Cc1cccc(Nc2ncnc3cc(OCCOC)c(OCCOC)cc23)c1 [Erlotinib, 4-(3-ethynylphenylamino)-6,7-bis(2-methoxyethoxy)-quinazoline, reference compound] was tested, and the “Relative Tumor Volume at Day 29 Mean ± Standard Deviation” value [1, 4] was 3.30 ± 0.19 and the “Relative Tumor Volume at Day 29 Mean ± Standard Deviation” value [2, 4] was 5.71 ± 1.84.
